Our source for the TGI values is PubChem BioAssay (NCI).

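Following 48 hours of exposure in 96-well plates, responses at five concentrations were used to interpolate endpoints linearly. TGI is the concentration that stops growth completely.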 Peptide text beside a SMILES is read from it. * marks the point of attachment. Boc = CC(C)(C)OC(=O)*; OBn = c1ccc(CO*)cc1 A value given as a limit tells only on which side of the number the result lay.

Among the test systems are EKVX NSCLC; HCT-15 colon; HOP-92 NSCLC; UO-31 renal; T-47D breast.
Holding throughout (assay): NCI-60 cell line screen, 48 h

For the compound `CSC1=N/C(=C\c2ccco2)C(=O)N1CN1CCCCC1`, the TGI with EKVX NSCLC is more than 100 µM; with HCT-15 colon, more than 100 µM; with HOP-92 NSCLC, 87.2 µM; with UO-31 renal, more than 100 µM.
Regarding `O=C(C1C(c2ccccc2)N1C(c1ccccc1)c1ccccc1)C1C(c2ccccc2)N1C(c1ccccc1)c1ccccc1` (stereo unspecified), the figures for the TGI in the experiment on EKVX NSCLC, with T-47D breast and in the experiment with UO-31 renal were more than 100 µM, more than 100 µM and 38.4 µM, respectively.
For the compound `CNn1c(C)n[nH]c1=O`, the TGI with EKVX NSCLC, in the experiment on HCT-15 colon, in the experiment on HOP-92 NSCLC, with T-47D breast and with UO-31 renal was more than 100 µM each time.
Consider `O=C(O)c1ccccc1C(=O)Nn1cnnc1`, for which the TGI in the experiment on EKVX NSCLC, in the experiment on HCT-15 colon, in the experiment with HOP-92 NSCLC and in the experiment on UO-31 renal was more than 100 µM throughout.
Turning to `CCCCCCCCC/C=C1\CC(CO)(COC(=O)C2CCCCC2)OC1=O` (stereo unspecified), the TGI in the experiment with EKVX NSCLC came to 39.1 µM; in the experiment on HCT-15 colon it was 41.7 µM; in the experiment on HOP-92 NSCLC, 22.2 µM; in the experiment on T-47D breast, 51.7 µM; in the experiment with UO-31 renal, 55.8 µM.
In the case of `CC(NC(=O)CNC(=O)OC(C)(C)C)C(=O)NC(Cc1ccccc1)C(=O)OCc1ccccc1` (stereo not drawn) (Boc-Gly-Ala-Phe-OBn; configuration not given here), the TGI with EKVX NSCLC, in the experiment on HCT-15 colon, in the experiment on HOP-92 NSCLC, with T-47D breast and with UO-31 renal was more than 100 µM throughout.
Consider `Cn1c(Nc2ccccc2)c(C=Nc2ccccc2)c(=O)n(C)c1=O`, for which the TGI in the experiment with HOP-92 NSCLC and in the experiment on UO-31 renal was more than 100 µM in each case.
With `[O-][n+]1onc(-c2ccccc2)c1CN1CCOCC1`, the TGI with EKVX NSCLC, in the experiment with HCT-15 colon, with HOP-92 NSCLC, with T-47D breast and in the experiment on UO-31 renal was more than 100 µM in each case.
As to `O=c1oc2ccccc2c(O)c1C(c1ccc(/C=C/c2ccccc2)cc1)c1c(O)c2ccccc2oc1=O`, the TGI is more than 100 µM in the experiment on EKVX NSCLC; more than 100 µM in the experiment with HCT-15 colon; 53.5 µM in the experiment on HOP-92 NSCLC; more than 100 µM in the experiment with T-47D breast; 41.1 µM in the experiment on UO-31 renal.
For the compound `OC(C/C(=N\N1CCCCC1)c1cccs1)(C(F)(F)F)C(F)(F)F`, the TGI in the experiment on EKVX NSCLC, with HCT-15 colon, in the experiment with HOP-92 NSCLC, with T-47D breast and in the experiment with UO-31 renal was more than 10 µM each time.
Consider `CCSC1=N/C(=C\c2ccco2)C(Cl)=N1`, for which the TGI in the experiment on EKVX NSCLC, in the experiment on HCT-15 colon, in the experiment on HOP-92 NSCLC, in the experiment on T-47D breast and in the experiment on UO-31 renal was more than 100 µM in each case.
For the compound `CCOC(=O)C1C(c2ccc(OC)cc2)c2c([nH][nH]c2=O)CC1(O)OCC` (stereo unspecified), the TGI in the experiment on EKVX NSCLC, with HCT-15 colon, in the experiment with HOP-92 NSCLC, in the experiment with T-47D breast and with UO-31 renal was more than 100 µM each time.
Take `COC(=O)C(=O)C(C(=O)C(=O)Nc1ccccc1C(C)=O)c1nc2ccc(C(=O)c3ccccc3)cc2[nH]c1=O` (stereo unspecified): the TGI in the experiment on EKVX NSCLC, with HCT-15 colon, with HOP-92 NSCLC, in the experiment on T-47D breast and in the experiment on UO-31 renal was more than 100 µM each time.
Regarding `NC(N)=N/N=C/c1c(-c2ccc([N+](=O)[O-])cc2)nc2n1CCS2`, the TGI in the experiment with EKVX NSCLC was 37.8 µM; in the experiment on HCT-15 colon, 36.7 µM; with HOP-92 NSCLC, 40.5 µM; in the experiment on T-47D breast it was 16.3 µM; in the experiment with UO-31 renal it was 30.2 µM.
`O=C(O)c1ccc(Nc2nc3ccccc3nc2-c2cccs2)cc1`: the TGI with EKVX NSCLC, with HCT-15 colon, in the experiment with HOP-92 NSCLC, in the experiment with T-47D breast and with UO-31 renal was more than 100 µM in each case.
Take `Nc1cn(Cc2ccccc2)c2nc(/C=C3/C=CC=CC3=O)c(O)n12`: the TGI in the experiment on EKVX NSCLC, in the experiment with HCT-15 colon, with HOP-92 NSCLC, in the experiment on T-47D breast and in the experiment on UO-31 renal was more than 100 µM throughout.
On to `C=C1CC(C)(COc2ccc3ccc(=O)oc3c2)OC1=O` (stereo unspecified), for which the TGI with EKVX NSCLC was determined as 26.7 µM; in the experiment on HCT-15 colon it was 8.71 µM; in the experiment with HOP-92 NSCLC, 4.4 µM; in the experiment with T-47D breast, 17.3 µM; with UO-31 renal it was 29.5 µM.
The matching figures for `COc1ccc(-c2c(CN3CCOCC3)sc3nc4ccccc4n23)cc1`: more than 57.4 µM, more than 95 µM, more than 100 µM, more than 100 µM and more than 100 µM.
The matching figures for `O=C1c2c(ccc3c2CCC3)CC12Cc1cc3c(cc1C2)CCC3`: more than 100 µM, more than 100 µM, more than 100 µM, more than 100 µM and more than 100 µM.
The matching figures for `COc1ccc(NC(C)=O)cc1C1CCC(=O)N1` (stereo unspecified): more than 100 µM, more than 100 µM, more than 100 µM, more than 100 µM and more than 100 µM.
With `N#Cc1c(Cl)c2ccccc2n2c1nc1ccccc12`, the TGI was 70 µM with EKVX NSCLC; 33.1 µM in the experiment with HCT-15 colon; 48.2 µM with HOP-92 NSCLC; 46.8 µM in the experiment with T-47D breast; 38.2 µM in the experiment with UO-31 renal.
As to `[N-]=[NH+]CC(=O)OC(COCc1ccccc1)COCc1ccccc1`, the TGI is more than 100 µM in the experiment on EKVX NSCLC, more than 100 µM with HCT-15 colon, more than 100 µM in the experiment with HOP-92 NSCLC and 63 µM in the experiment with UO-31 renal.
As for `CC(=O)OCC1OC(N2C(C)=C(C(C)=O)C(c3ccco3)C(C#N)=C2S)C(OC(C)=O)C(OC(C)=O)C1OC(C)=O` (stereo unspecified), the TGI with HCT-15 colon, with HOP-92 NSCLC, in the experiment with T-47D breast and with UO-31 renal was more than 100 µM throughout.
With `COC(=O)C1=C(\c2ccccc2)c2ccccc2C(=O)N(C2CCCCC2)/C=C\1`, the TGI in the experiment on EKVX NSCLC was more than 100 µM; in the experiment with HCT-15 colon, more than 100 µM; in the experiment with HOP-92 NSCLC, 95.2 µM; with UO-31 renal, more than 100 µM.
Take `N#Cc1c(Cl)/c(=C/O)c(=O)n2c1nc1ccccc12`: the TGI in the experiment with EKVX NSCLC is more than 100 µM; in the experiment with HCT-15 colon, more than 100 µM; in the experiment on HOP-92 NSCLC, 68.1 µM; in the experiment on UO-31 renal it was more than 100 µM.
Turning to `COc1ccc(C2=C(N)c3c(OC)cccc3C2=O)cc1`, the TGI with EKVX NSCLC, with HCT-15 colon, in the experiment on T-47D breast and with UO-31 renal was more than 100 µM throughout.
Regarding `O=[N+]([O-])c1ccc2[nH]ncc2c1Cl`, the TGI in the experiment with EKVX NSCLC is 53.8 µM; in the experiment on HCT-15 colon it was more than 100 µM; in the experiment with HOP-92 NSCLC, more than 100 µM; with T-47D breast it was 44.4 µM.
In the case of `COC(=O)c1ccccc1/C=C1\Cc2cc(C)cc(C)c2C1=O`, the TGI in the experiment on EKVX NSCLC, with HCT-15 colon and in the experiment with T-47D breast was more than 100 µM throughout.
Turning to `O=C1c2ccccc2C2=Nc3ccncc3CN12`, the TGI with EKVX NSCLC, in the experiment with HCT-15 colon, in the experiment with HOP-92 NSCLC and in the experiment with UO-31 renal was more than 100 µM in each case.
Regarding `O=c1c2cccnc2cc(-c2ccccc2)n1CCO`, the TGI in the experiment with EKVX NSCLC, with HCT-15 colon, in the experiment with T-47D breast and in the experiment on UO-31 renal was more than 100 µM each time.
As to `CCCCCC(CO)C(O)(C(F)(F)F)C(F)(F)F` (stereo unspecified), the TGI in the experiment with EKVX NSCLC, in the experiment on HCT-15 colon, in the experiment with HOP-92 NSCLC and with T-47D breast was more than 10 µM each time.
As to `O=C1CCC2CCC1C2` (stereo unspecified), the TGI in the experiment on HCT-15 colon, in the experiment on T-47D breast and with UO-31 renal was more than 100 µM each time.
Consider `COc1cc(C2c3cc4c(cc3OC(Nc3ccccc3)C2C)OCO4)cc(OC)c1OC` (stereo unspecified), for which the TGI was more than 88.5 µM in the experiment on EKVX NSCLC, more than 21.6 µM in the experiment with HCT-15 colon, more than 100 µM in the experiment with T-47D breast and more than 100 µM in the experiment with UO-31 renal.
With `Cc1nn(-c2ccccc2)c2[nH]c(=S)cnc12`, the TGI with EKVX NSCLC, in the experiment on HOP-92 NSCLC, in the experiment on T-47D breast and with UO-31 renal was more than 100 µM each time.
Turning to `O=c1oc2ccccc2nc1/C=C(\O)c1ccc([N+](=O)[O-])cc1`, the TGI in the experiment on EKVX NSCLC, in the experiment with HCT-15 colon, in the experiment with T-47D breast and in the experiment on UO-31 renal was more than 100 µM throughout.
`COC1=C(N2CC2)C(=O)c2nc3n(c2C1=O)CCC3`: the TGI in the experiment with HCT-15 colon is 1.55 µM; in the experiment with HOP-92 NSCLC it was 7.74 µM; in the experiment on T-47D breast, 4.15 µM.
With `CCOC(=O)c1c(-c2ccc(O)c(OC)c2)c(C#N)c(=S)n(C2OC(COC(C)=O)C(OC(C)=O)C(OC(C)=O)C2OC(C)=O)c1-c1ccccc1` (stereo unspecified), the TGI in the experiment with EKVX NSCLC, with HCT-15 colon, in the experiment with HOP-92 NSCLC and in the experiment on UO-31 renal was more than 100 µM throughout.
Turning to `C=C(Br)CN(C(C)=O)C1CCCCC1`, the TGI in the experiment with EKVX NSCLC, with HCT-15 colon, in the experiment with T-47D breast and in the experiment on UO-31 renal was more than 100 µM each time.
For the compound `COc1ccc2c(c1)CCc1[nH]c3ccccc3c1CCCC2`, the TGI in the experiment with HCT-15 colon, in the experiment with HOP-92 NSCLC and in the experiment with T-47D breast was more than 10 µM in each case.
